Target: T1, Recombinant human liver cathepsin-B (Homo sapiens, UniProt P07858)
T1 construct: purchased Sigma Aldrich
Test: Cathepsin-B cleavage testing of peptide-AMC substrates
Format: biochemical
Conditions: for AMC fluorescence intensity change over time following addition of catB: 1 mM peptide in activation buffer pH 5, emission 440 nm
Experimental: Peptide-AMC: Recombinant human liver cathepsin-B (Sigma Aldrich) was used for the in vitro experiments. 0.25 μM DTT used in 0.25 μM HEPES in PBS (pH 5) as activation buffer. Peptides were dissolved in activation buffer to a final concentration as 1 mM. 0.5 μL of catB enzyme or vehicle control was added into the peptide solution. Plate reader analysis with Tecan Infinite M200 PRO plate reader (Mannedorf, Switzerland) with triplicates of each sample were performed in 96 well plates. The intensity of the excited dye at 388 nm was measured at 440 nm. Dual dye-labeled peptide on resin: CatB and activation buffer were prepared as described above. Dye-labeled peptides were again left on the resin. Resin was washed with methanol, dried in a vacuum overnight, and then immersed in PBS (pH 7.4) for 1 hour at 37° C. PBS was then drained followed by addition of 1 mL activation buffer and 5 μL of catB for 100 mg of resin. Control testing was performed in the same solution without the addition of catB. Supernatant was collected after 3 hours and 24 hours. The florescence intensity of triplicates of each sample was measured with plate reader FAM (λexc=485 nm, λem=535 nm) and Tamra (λexc=520 nm, λem=620 nm).
A variety of enzyme-cleavable peptide sequences used in antibody-drug and peptide-drug conjugates were tested for efficacy in the systems herein (Ref. B35, B40-B43; incorporated by reference in their entireties).
The experimentally cleavable VC-PABA sequence and a control, non-cleavable triple glycine (GGG) linker, were conjugated to a 7-amino-4-methylcoumarin (AMC) dye, useful in studying protease activity and specificity (VC-PABA-AMC and GGG-AMC) (FIGS. 9A and 9B) (Ref. B45; incorporated by reference in its entirety). The electron group of the AMC fluorophore is localized, and thus remains quenched, when linked to the VC-PABA or GGG peptide substrate. When the covalent bond between the peptide and AMC is cleaved, this group de-localizes resulting in fluorescence detected at 440 nm (excitation: 348 nm) allowing for real-time measurement of enzyme/substrate kinetics. […]

Substance	AMC fluorescence intensity change over time following addition of catB	catB cleavage efficacy among tested enzyme-cleavable peptide sequences (comparison of linker sequences)
Glycine-Glycine-Glycine (GGG)-AMC [GGG-AMC, reference compound]	Neither GGG-AMC or GG-PABA-AMC showed any change in fluorophore intensity	
Valine-Citrulline-Para(aminobenzoicacid) (VC-PABA)-AMC [VC-PABA-AMC]	rapidly increased	
valine-citrulline [VC]		fastest and most complete cleavage
